Data reported in ChEMBL document CHEMBL1134351, “Synthesis of new cyclitol compounds that influence the activity of phosphatidylinositol 4-kinase isoform, PI4K230” (J Med Chem, 2001).

Biological target: Phosphatidylinositol 4-kinase alpha (Bos taurus) (UniProt O02811)
Assay: Inactivation of the enzyme PI4K230 from bovine brain membranes
Parameters: concentration or dose not given beside the values

Sequence of Phosphatidylinositol 4-kinase alpha (Bos taurus) (O02811 whole entry): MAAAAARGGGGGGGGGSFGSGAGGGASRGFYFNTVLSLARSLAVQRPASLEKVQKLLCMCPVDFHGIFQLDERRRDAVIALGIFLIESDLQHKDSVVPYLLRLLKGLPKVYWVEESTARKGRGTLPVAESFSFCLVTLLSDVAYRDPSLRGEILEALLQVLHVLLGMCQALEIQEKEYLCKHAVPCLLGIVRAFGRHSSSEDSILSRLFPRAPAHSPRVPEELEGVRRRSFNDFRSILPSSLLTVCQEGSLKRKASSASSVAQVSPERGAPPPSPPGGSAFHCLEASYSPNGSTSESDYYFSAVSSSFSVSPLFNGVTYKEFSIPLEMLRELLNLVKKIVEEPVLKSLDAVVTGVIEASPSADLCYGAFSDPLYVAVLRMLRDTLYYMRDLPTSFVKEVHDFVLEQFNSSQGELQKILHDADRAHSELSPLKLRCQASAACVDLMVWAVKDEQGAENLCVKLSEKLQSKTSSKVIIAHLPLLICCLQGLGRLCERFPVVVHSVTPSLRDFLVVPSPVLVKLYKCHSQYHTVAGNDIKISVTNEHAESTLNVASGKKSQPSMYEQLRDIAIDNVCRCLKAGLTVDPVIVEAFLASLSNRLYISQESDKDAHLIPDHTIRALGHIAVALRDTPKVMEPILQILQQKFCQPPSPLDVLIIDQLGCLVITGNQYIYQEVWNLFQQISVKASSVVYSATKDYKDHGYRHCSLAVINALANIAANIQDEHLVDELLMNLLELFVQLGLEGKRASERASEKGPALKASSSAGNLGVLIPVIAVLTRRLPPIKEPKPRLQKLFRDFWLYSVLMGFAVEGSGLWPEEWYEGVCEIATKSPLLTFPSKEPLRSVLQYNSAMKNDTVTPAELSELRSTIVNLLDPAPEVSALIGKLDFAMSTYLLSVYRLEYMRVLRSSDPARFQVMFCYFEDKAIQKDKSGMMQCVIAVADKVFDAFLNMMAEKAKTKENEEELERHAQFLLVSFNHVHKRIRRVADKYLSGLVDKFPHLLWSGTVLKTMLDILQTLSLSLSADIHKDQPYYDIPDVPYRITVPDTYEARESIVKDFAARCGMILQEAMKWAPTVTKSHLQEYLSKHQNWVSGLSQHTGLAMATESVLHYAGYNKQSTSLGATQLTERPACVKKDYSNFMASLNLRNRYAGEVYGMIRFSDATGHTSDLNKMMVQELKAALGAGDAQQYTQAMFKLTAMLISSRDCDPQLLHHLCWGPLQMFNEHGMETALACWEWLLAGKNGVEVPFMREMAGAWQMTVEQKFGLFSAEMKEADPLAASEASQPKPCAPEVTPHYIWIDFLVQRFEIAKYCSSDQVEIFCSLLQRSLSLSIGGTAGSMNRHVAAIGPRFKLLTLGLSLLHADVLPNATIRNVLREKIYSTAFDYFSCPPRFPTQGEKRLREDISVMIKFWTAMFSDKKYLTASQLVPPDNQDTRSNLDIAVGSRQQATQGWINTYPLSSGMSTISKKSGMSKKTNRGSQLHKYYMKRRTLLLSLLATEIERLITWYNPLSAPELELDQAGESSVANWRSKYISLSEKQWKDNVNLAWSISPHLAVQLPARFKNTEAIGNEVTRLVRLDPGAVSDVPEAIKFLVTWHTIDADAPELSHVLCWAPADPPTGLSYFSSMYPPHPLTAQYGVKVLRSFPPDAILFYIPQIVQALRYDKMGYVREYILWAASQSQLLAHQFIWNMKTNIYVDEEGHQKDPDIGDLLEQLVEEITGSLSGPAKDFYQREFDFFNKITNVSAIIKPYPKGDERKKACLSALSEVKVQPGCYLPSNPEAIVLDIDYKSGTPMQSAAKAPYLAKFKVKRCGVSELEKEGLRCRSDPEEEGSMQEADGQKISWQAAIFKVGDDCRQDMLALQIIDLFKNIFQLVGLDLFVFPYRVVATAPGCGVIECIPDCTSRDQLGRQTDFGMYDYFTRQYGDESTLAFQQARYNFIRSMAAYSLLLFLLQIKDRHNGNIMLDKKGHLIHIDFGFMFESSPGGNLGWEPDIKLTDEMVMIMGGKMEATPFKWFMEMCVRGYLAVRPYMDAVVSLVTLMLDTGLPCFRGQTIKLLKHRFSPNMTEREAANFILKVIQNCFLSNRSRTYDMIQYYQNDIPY

Row | Remaining activity | SMILES
1 | 51% | O=C1C[C@H](O)CC=C1OC(=O)c1ccccc1
2 | 56% | CC(=O)O[C@@H]1[C@@H](NC(=O)c2ccccc2)[C@@H](O)CC(=O)[C@H]1OC(C)=O
3 | 63% | COC(=O)/C=C1\C[C@H](O)C[C@@H](N=[N+]=[N-])[C@@H]1OC(=O)c1ccccc1
4 | 64% | COC(=O)/C=C1\C[C@H](O)C[C@@H](OC(=O)c2ccccc2)[C@@H]1OC(=O)c1ccccc1
5 | 8% | O=C(O[C@@H]1C(=O)C=CC[C@H]1OC(=O)c1ccccc1)c1ccccc1
6 | 80% | [N-]=[N+]=N[C@@H]1C[C@@H](O)CC(=O)[C@H]1OC(=O)c1ccccc1
7 | 20% | CC(=O)O[C@@H]1CC(=O)[C@@H](OC(=O)c2ccccc2)[C@H](OC(=O)c2ccccc2)C1
8 | 80% | CC1(C)OC2CC(=O)C[C@@H](O)C2O1 (some centres undefined)
9 | 66% | [N-]=[N+]=N[C@@H]1C[C@@H](O)C/C(=N\O)[C@H]1OC(=O)c1ccccc1
10 | 5% | [N-]=[N+]=N[C@@H]1CC=CC(=O)[C@H]1OC(=O)c1ccccc1
11 | 82% | CC(=O)O[C@@H]1CC(=O)[C@@H](OCc2ccccc2)[C@H](N=[N+]=[N-])C1
12 | 85% | [N-]=[N+]=N[C@@H]1C[C@@H](O)CC(=O)[C@H]1OCc1ccccc1
13 | 96% | [N-]=[N+]=N[C@@H]1C[C@@H](O)CC2(SCCS2)[C@H]1OC(=O)c1ccccc1
14 | 85% | [N-]=[N+]=N[C@@H]1CC=CC(=O)[C@H]1OCc1ccccc1
15 | 70% | COC(=O)/C=C1\C[C@H](O)C[C@@H](N=[N+]=[N-])[C@@H]1OCc1ccccc1
16 | 10% | CC(=O)O[C@H]1CC(=O)[C@@H](OC(=O)c2ccccc2)[C@H](N=[N+]=[N-])C1
17 | 84% | O=C(O[C@@H]1C(=O)C[C@H](O)C[C@H]1OC(=O)c1ccccc1)c1ccccc1
18 | 96% | CC(=O)O[C@@H]1C[C@@H](N=[N+]=[N-])[C@H](OC(=O)c2ccccc2)C2(C1)SCCS2
19 | 57% | CC1(C)OC2C=CC(=O)CC2O1 (centres undefined)
